Measured values published in patent US12691182B2, “Maytansinoid derivatives, conjugates thereof, and methods of use” (priority 2016, dated 2026).

Legend:
Assay type in all cases: cell-based
[1] = test system: Ovcar3 (Muc16+) cells; test: In vitro cytotoxicity assay, Ovcar3 cells (CCK8 viability); conditions: naked payload, 3 days; for Ovcar3 % kill: % kill reported for the highest dose; for IC50: CCK8
Experimental: (§1) In this Example, the ability of various antibody-drug conjugates and naked payloads to kill antigen-expressing tumor cells in vitro was assessed.
(§2) Ovcar3 (Muc16+) cells were seeded in 96 well plates at 3000 cells per well in complete growth media and grown overnight. For cell viability curves, serially diluted conjugates or naked payloads were added to the cells at final concentrations ranging from 100 nM to 5 pM and incubated for 3 days. To measure viability, cells were incubated with CCK8 (Dojindo) for the final 2 hours and the absorbance at 450 nm (OD450) was determined on a Victor (Perkin Elmer). Background OD450 levels determined from digitonin (40 nM) treated cells were subtracted from all wells and viability is expressed as a percentage of the untreated controls. IC50 values were determined from a four-parameter logistic equation over a 10-point response curve (GraphPad Prism). […] All curves and IC50 values are corrected for payload equivalents. The plot of % Cell Viability vs. Log 10 [M]
(§3) All IC50s are expressed in nM concentration and % kill is reported for the highest dose. All curves and IC50 values are corrected for payload equivalents. The plot of % Cell Viability vs. Log 10 [M]

[2] = test system: SKBR3 (Her2+) cells; test: In vitro cytotoxicity assay, SKBR3 cells (CCK8 viability); conditions: naked payload, SKBr-3 cells, 3 days; for SKBr-3 % kill: % kill reported for the highest dose; for IC50: CCK8
Experimental: as §1
as §2, with “SKBR3 (Her2+)” for “Ovcar3 (Muc16+)”, “8000” for “3000”
as §3

[3] = test system: C4-2 (STEAP2+) cells; test: In vitro cytotoxicity assay, C4-2 cells (CellTiter-Glo viability); conditions: naked payload, 5 days; for C4-2 % kill: % kill reported for the highest dose; for IC50: CellTiter-Glo
Experimental: as §1
C4-2 (STEAP2+) cells were seeded in 96 well plates at 4000 cells per well in complete growth media and grown overnight. For cell viability curves, serially diluted conjugates or naked payloads were added to the cells at final concentrations ranging from 100 nM to 5 pM and incubated for 5 days. To measure viability, cells were incubated with CellTiter-Glo reagents for 5 minutes and luminescence was determined on a Victor plate reader (PerkinElmer). IC50 values were determined from a four-parameter logistic equation over a 10-point response curve (GraphPad Prism).
as §3

Row | Compound | Ovcar3 % kill [1] | IC50 [1] | SKBr-3 % kill [2] | IC50 [2] | C4-2 % kill [3] | IC50 [3]
1 | COc1cc2cc(c1Cl)N(C)C(=O)CC(OC(=O)Nc1ccc(N)cc1)C1(C)OC1C(C)C1CC(O)(NC(=O)O1)C(OC)C=CC=C(C)C2 (stereo not drawn) [Compound 8, Maytan-3-O-carbamoyl-N-(4-aminobenzene)] | ** (** indicates % kill greater than, or equal to, 85 and less than 90) | 1 to 10 nM | **** (**** indicates % kill greater than, or equal to, 95 and less than 99) | 1 to 10 nM | **** (**** indicates % kill greater than, or equal to, 95 and less than 99) | ≥ 10 nM
2 | COc1cc2cc(c1Cl)N(C)C(=O)CC(OC(=O)Nc1ccc(N)cc1Cl)C1(C)OC1C(C)C1CC(O)(NC(=O)O1)C(OC)C=CC=C(C)C2 (stereo not drawn) [Compound 17, Maytan-3-O-carbamoyl-N-(2-chloro-4-amino)benzene] | *** (*** indicates % kill greater than, or equal to, 90 and less than 95) | 0.001 to 0.01 nM | ***** (***** indicates % kill greater than, or equal to, 99) | 0.01 to 0.1 nM | **** (**** indicates % kill greater than, or equal to, 95 and less than 99) | 0.1 to 1 nM
3 | COc1cc2cc(c1Cl)N(C)C(=O)CC(OC(=O)Nc1ccc(N)c(Cl)c1)C1(C)OC1C(C)C1CC(O)(NC(=O)O1)C(OC)C=CC=C(C)C2 (stereo not drawn) [Compound 30a, Maytan-3-O-carbamoyl-N-(3-chloro-4-amino)benzene] | *** (*** indicates % kill greater than, or equal to, 90 and less than 95) | 0.1 to 1 nM | **** (**** indicates % kill greater than, or equal to, 95 and less than 99) | 0.1 to 1 nM | ***** (***** indicates % kill greater than, or equal to, 99) | 1 to 10 nM
4 | COc1cc2cc(c1Cl)N(C)C(=O)CC(OC(=O)Nc1ccc(Cl)cc1N)C1(C)OC1C(C)C1CC(O)(NC(=O)O1)C(OC)C=CC=C(C)C2 (stereo not drawn) [Compound 30b, Maytan-3-O-carbamoyl-N-(4-chloro-2-amino)benzene] | – | – | **** (**** indicates % kill greater than, or equal to, 95 and less than 99) | 0.1 to 1 nM | * (* indicates % kill less than 85) | ≥ 10 nM
5 | COc1cc2cc(c1Cl)N(C)C(=O)C[C@H](OC(=O)Nc1ccc(N)cc1C)[C@]1(C)O[C@H]1[C@H](C)[C@@H]1C[C@@](O)(NC(=O)O1)[C@H](OC)/C=C/C=C(\C)C2 [Compound 30c, Maytan-3-O-carbamoyl-N-(2-methyl-4-amino)benzene] | ** (** indicates % kill greater than, or equal to, 85 and less than 90) | 1 to 10 nM | *** (*** indicates % kill greater than, or equal to, 90 and less than 95) | 1 to 10 nM | ** (** indicates % kill greater than, or equal to, 85 and less than 90) | ≥ 10 nM
6 | COc1cc2cc(c1Cl)N(C)C(=O)CC(OC(=O)Nc1c(C)cccc1N)C1(C)OC1C(C)C1CC(O)(NC(=O)O1)C(OC)C=CC=C(C)C2 (stereo not drawn) [Compound 30f, Maytan-3-O-carbamoyl-N-(6-methyl-2-amino)benzene] | – | – | ***** (***** indicates % kill greater than, or equal to, 99) | 0.1 to 1 nM | **** (**** indicates % kill greater than, or equal to, 95 and less than 99) | 1 to 10 nM
7 | COc1cc2cc(c1Cl)N(C)C(=O)C[C@H](OC(=O)Nc1ccc(F)cc1N)[C@]1(C)O[C@H]1[C@H](C)[C@@H]1C[C@@](O)(NC(=O)O1)[C@H](OC)/C=C/C=C(\C)C2 [Compound 30g, Maytan-3-O-carbamoyl-N-(4-fluoro-2-amino)benzene] | – | – | ***** (***** indicates % kill greater than, or equal to, 99) | 0.1 to 1 nM | ***** (***** indicates % kill greater than, or equal to, 99) | 1 to 10 nM
8 | COc1cc2cc(c1Cl)N(C)C(=O)C[C@H](OC(=O)Nc1cc(N)ccc1F)[C@]1(C)O[C@H]1[C@H](C)[C@@H]1C[C@@](O)(NC(=O)O1)[C@H](OC)/C=C/C=C(\C)C2 [Compound 30h, Maytan-3-O-carbamoyl-N-(2-fluoro-5-amino)benzene] | – | – | **** (**** indicates % kill greater than, or equal to, 95 and less than 99) | 0.1 to 1 nM | * (* indicates % kill less than 85) | 1 to 10 nM
9 | COc1ccc(NC(=O)O[C@H]2CC(=O)N(C)c3cc(cc(OC)c3Cl)C/C(C)=C/C=C/[C@@H](OC)[C@@]3(O)C[C@H](OC(=O)N3)[C@@H](C)[C@@H]3O[C@@]23C)c(N)c1 [Compound 30i, Maytan-3-O-carbamoyl-N-(4-methoxy-2-amino)benzene] | – | – | ***** (***** indicates % kill greater than, or equal to, 99) | 1 to 10 nM | ***** (***** indicates % kill greater than, or equal to, 99) | ≥ 10 nM
10 | COc1cc(NC(=O)OC2CC(=O)N(C)c3cc(cc(OC)c3Cl)CC(C)=CC=CC(OC)C3(O)CC(OC(=O)N3)C(C)C3OC23C)ccc1N (stereo not drawn) [Compound 30j, Maytan-3-O-carbamoyl-N-(3-methoxy-4-amino)benzene] | ** (** indicates % kill greater than, or equal to, 85 and less than 90) | 1 to 10 nM | **** (**** indicates % kill greater than, or equal to, 95 and less than 99) | 0.1 to 1 nM | *** (*** indicates % kill greater than, or equal to, 90 and less than 95) | ≥ 10 nM
11 | COc1cc2cc(c1Cl)N(C)C(=O)CC(OC(=O)Nc1ccc(N)c(C(F)(F)F)c1)C1(C)OC1C(C)C1CC(O)(NC(=O)O1)C(OC)C=CC=C(C)C2 (stereo not drawn) [Compound 30l, Maytan-3-O-carbamoyl-N-(3-trifluoromethyl-4-amino)benzene] | *** (*** indicates % kill greater than, or equal to, 90 and less than 95) | 0.1 to 1 nM | ***** (***** indicates % kill greater than, or equal to, 99) | 0.1 to 1 nM | – | ≥ 10 nM
12 | COc1cc2cc(c1Cl)N(C)C(=O)CC(OC(=O)Nc1cc(Cl)c(F)cc1N)C1(C)OC1C(C)C1CC(O)(NC(=O)O1)C(OC)C=CC=C(C)C2 (stereo not drawn) [Compound 30o, Maytan-3-O-carbamoyl-N-(4-fluoro-5-chloro-2-amino)benzene] | – | – | ***** (***** indicates % kill greater than, or equal to, 99) | 0.1 to 1 nM | * (* indicates % kill less than 85) | ≥ 10 nM
13 | COc1cc2cc(c1Cl)N(C)C(=O)C[C@H](OC(=O)Nc1cc(N3CCOCC3)c(N)cc1C)[C@]1(C)O[C@H]1[C@H](C)[C@@H]1C[C@@](O)(NC(=O)O1)[C@H](OC)/C=C/C=C(\C)C2 [Compound 30p, Maytan-3-O-carbamoyl-N-(4-amino-2-methyl-5-morpholin-4-yl)benzene] | – | – | * (* indicates % kill less than 85) | ≥ 10 nM | – | ≥ 10 nM
14 | COc1cc2cc(c1Cl)N(C)C(=O)C[C@H](OC(=O)Nc1cc(N3CCCC3)c(N)cc1C)[C@]1(C)O[C@H]1[C@H](C)[C@@H]1C[C@@](O)(NC(=O)O1)[C@H](OC)/C=C/C=C(\C)C2 [Compound 30q, Maytan-3-O-carbamoyl-N-(4-amino-2-methyl-5-pyrrolidin-1-yl)benzene] | – | – | ***** (***** indicates % kill greater than, or equal to, 99) | 1 to 10 nM | *** (*** indicates % kill greater than, or equal to, 90 and less than 95) | ≥ 10 nM
15 | Maytan-3-O-carbamoyl-N-(2-methyl-3-amino)benzene [Compound 30d] | – | – | **** (**** indicates % kill greater than, or equal to, 95 and less than 99) | 1 to 10 nM | **** (**** indicates % kill greater than, or equal to, 95 and less than 99) | 1 to 10 nM
16 | Maytan-3-O-carbamoyl-N-(4-trifluoromethoxy-2-amino)benzene [Compound 30n] | – | – | ***** (***** indicates % kill greater than, or equal to, 99) | 1 to 10 nM | ***** (***** indicates % kill greater than, or equal to, 99) | ≥ 10 nM
17 | Maytan-3-O-carbamoyl-N-(6-methyl-3-amino)benzene [Compound 30e] | – | – | *** (*** indicates % kill greater than, or equal to, 90 and less than 95) | 1 to 10 nM | **** (**** indicates % kill greater than, or equal to, 95 and less than 99) | 1 to 10 nM
